Counter-ions that a name gives are not always drawn.
Experiments:
[1] = molecular target: T1, recombinant human 5-HT6 receptor (Homo sapiens, UniProt P50406); test: Determination of Kb for 5-HT6 receptor (CHO cells, pCRE-Luc reporter, cAMP); type: cell-based; details: 10 μM serotonin, luciferase reporter
T1 construct: expressed in transfected cells
Description: Determination of Kb for 5-HT6 Receptor: A stable CHO cell line expressing recombinant human 5-HT6 receptor and pCRE-Luc reporter system was used for cell based assay. The assay offers a non-radioactive based approach to determine binding of a compound to GPCRs. In this specific assay, the level of intracellular cyclic AMP which is modulated by activation or inhibition of the receptor is measured. The recombinant cells harbor luciferase reporter gene under the control of cAMP response element. The above cells were plated in 96 well clear bottom white plates at a density of 5×10^4 cells/well using Hams F12 medium containing 10% fetal bovine serum (FBS) and incubated overnight at 37° C. and 5% CO2 followed by serum starvation for 18-20 hrs. Increasing concentrations of test compounds were added along with 10 μM serotonin in Opti-MEM to the cells. The incubation was continued at 37° C. in CO2 incubator for 4 hours. After 4 hours cells were lysed using lysis buffer and luciferase assay buffer was added to each well and counts per second were recorded using luminescence counter. From counts per second (CPS) obtained, percent binding was calculated for each well by taking 10 μM 5-HT as 100% bound and vehicle as 0% bound. The percent bound values were plotted against compound concentrations and data were analyzed using a nonlinear, iterative curve-fitting computer program of Graph pad Prism 4 software. The Kb values were calculated using concentration of the agonist used in the assay.

recombinant human 5-HT2A = molecular target: T2, recombinant human 5-HT2A (Homo sapiens, UniProt P28223); test: Determination of 5-HT2A binding ([3H]-Ketanserin radioligand, membranes); details: human 5-HT2A membranes, [3H]-Ketanserin 1.75 nM
T2 construct: purchased Perkin Elmer ES-313-M400UA
T2 sequence (P28223 whole entry): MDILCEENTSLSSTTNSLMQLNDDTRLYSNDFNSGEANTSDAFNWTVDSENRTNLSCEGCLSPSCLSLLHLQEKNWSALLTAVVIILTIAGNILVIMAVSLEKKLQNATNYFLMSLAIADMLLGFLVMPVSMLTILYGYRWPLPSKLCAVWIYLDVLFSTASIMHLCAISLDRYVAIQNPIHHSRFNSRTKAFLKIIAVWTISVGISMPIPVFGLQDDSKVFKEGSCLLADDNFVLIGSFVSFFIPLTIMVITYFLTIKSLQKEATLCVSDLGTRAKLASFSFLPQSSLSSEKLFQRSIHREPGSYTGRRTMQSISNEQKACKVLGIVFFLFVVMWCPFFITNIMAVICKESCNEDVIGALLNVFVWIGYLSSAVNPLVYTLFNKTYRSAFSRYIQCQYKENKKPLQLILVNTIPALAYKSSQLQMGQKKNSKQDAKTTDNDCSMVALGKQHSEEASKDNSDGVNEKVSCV
Description: Membrane preparation from recombinant human 5-HT2A cell line (Cat no. ES-313-M400UA) and radio ligand Ketanserin Hydrochloride, [Ethylene-^3H]-(R-41468) (Cat no. NET791250UC) were purchased from Perkin Elmer. All other reagents used in buffer preparation were purchased from Sigma. The final ligand concentration was 1.75 nM; non-specific determinant was 1-NP [10 μM] and 5-HT2A membrane protein (5 μg/well). 1-NP was used as a positive control. Reactions were carried out in 67 mM Tris pH 7.6 containing 0.5 mM EDTA buffer for 60 minutes at 25° C. Reaction was stopped by rapid filtration followed by six washes of the binding mixture using 96 well harvest plate (Millipore Cat no. MSFBNXB50) pre coated with 0.33% polyethyleneimine. The plate was dried and the bound radioactivity collected on the filters was determined by scintillation counting using MicroBeta TriLux. Radio ligand binding in the presence of non-labeled compound was expressed as a percent of the total binding and plotted against the log concentration of the compound. Ki values were determined using a nonlinear, iterative curve-fitting computer program of Graph pad Prism 4 software.

Female rats = test: Non-clinical toxicology, repeated dose toxicity study in rat; type: in vivo; details: repeated dose toxicity
Description: (§1) The safety of the example 1 of instant invention and comparator example of U.S. Pat. No. 7,378,415 were evaluated in repeated dose toxicity study in rat.
(§2) Female rats were used as experimental animals for evaluating the toxicity profile of example 1 of instant invention and the comparator example of U.S. Pat. No. 7,378,415.
(§3) During the study, female rats were dosed at incremental doses for minimum of 4 days. Toxicity assessment was done on the mortality, clinical observation, change in the body weight, feed consumption, clinical and anatomical pathology. Systemic exposures were also estimated for both of the compounds. All quantitative variables are compared with control group using one-way ANOVA followed by Dunnet's post-hoc test on GraphPad Prism Software version 4, 2003.

[2] = as above; type: in vivo; details: rat, female rats
Description: as §1, §2, §3

T1 sequence (P50406 whole entry): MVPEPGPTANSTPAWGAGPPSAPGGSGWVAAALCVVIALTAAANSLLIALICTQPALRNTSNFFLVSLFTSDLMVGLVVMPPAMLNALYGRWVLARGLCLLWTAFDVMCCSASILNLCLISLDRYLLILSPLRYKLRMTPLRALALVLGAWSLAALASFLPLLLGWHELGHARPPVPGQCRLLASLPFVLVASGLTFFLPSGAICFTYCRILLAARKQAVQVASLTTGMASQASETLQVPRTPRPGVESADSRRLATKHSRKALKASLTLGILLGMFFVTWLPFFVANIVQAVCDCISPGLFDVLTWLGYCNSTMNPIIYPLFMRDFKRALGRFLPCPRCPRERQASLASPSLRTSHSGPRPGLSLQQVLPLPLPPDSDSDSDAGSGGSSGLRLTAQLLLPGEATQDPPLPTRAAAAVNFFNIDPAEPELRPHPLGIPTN

With `O=S(=O)(c1ccccc1)c1ccc2c(c1)OCCN2C1CCNCC1F` (single isomer, unassigned; peak i) [Example 2, 7-Phenylsulfonyl-4-(3-fluoropiperidin-4-yl)-3,4-dihydro-2H-benzo[1,4]oxazine hydrochloride (Peak I)] the Kb [1] was 0.4 nM and the Ki (recombinant human 5-HT2A) was 262 nM.

`O=S(=O)(c1ccccc1)c1ccc2c(c1)OCCN2C1CCNCC1F` (single isomer, unassigned; peak ii) [Example 3, 7-Phenylsulfonyl-4-(3-fluoropiperidin-4-yl)-3,4-dihydro-2H-benzo[1,4]oxazine hydrochloride (Peak II)] gave a Kb [1] of 0.09 nM and a Ki (recombinant human 5-HT2A) of 113 nM.

For `O=S(=O)(c1ccccc1)c1ccc2c(c1)N(C1CCNCC1F)CCO2` (single isomer, unassigned; peak ii) [Example 15, 6-Phenylsulfonyl-4-(3-fluoropiperidin-4-yl)-3,4-dihydro-2H-benzo[1,41]oxazine (Peak II)], the Kb [1] was 1.25 nM and the Ki (recombinant human 5-HT2A) was 1660 nM.

With `O=S(=O)(c1cccc(F)c1)c1ccc2c(c1)OCCN2C1CCNCC1F` (single isomer, unassigned; peak iii) [Example 7, 7-(3-Fluorophenylsulfonyl)-4-(3-fluoropiperidin-4-yl)-3,4-dihydro-2H-benzo[1,4]oxazine hydrochloride (Peak III)] the Kb [1] was < 0.1 nM and the Ki (recombinant human 5-HT2A) was 19.7 nM.

For `O=S(=O)(c1ccccc1)c1ccc2c(c1)OCCN2C1CCNCC1F` (single isomer, unassigned; peak iv) [Example 4, 7-Phenylsulfonyl-4-(3-fluoropiperidin-4-yl)-3,4-dihydro-2H-benzo[1,4]oxazine hydrochloride (Peak IV)], the Kb [1] was 0.4 nM and the Ki (recombinant human 5-HT2A) was 3930 nM.

Compound `O=S(=O)(c1cccc(F)c1)c1ccc2c(c1)OCCN2C1CCNCC1F` (single isomer, unassigned; peak iv) [Example 8, 7-(3-Fluorophenylsulfonyl)-4-(3-fluoropiperidin-4-yl)-3,4-dihydro-2H-benzo[1,4]oxazine hydrochloride (Peak IV)] has a Kb [1] of 19 nM and a Ki (recombinant human 5-HT2A) of 804 nM.

`O=S(=O)(c1ccccc1)c1ccc2c(c1)N(C1CCNCC1F)CCO2` (single isomer, unassigned; peak iv) [Example 17, 6-Phenylsulfonyl-4-(3-fluoropiperidin-4-yl)-3,4-dihydro-2H-benzo[1,41]oxazine (Peak IV)] gave a Kb [1] of 1.79 nM and a Ki (recombinant human 5-HT2A) of 907 nM.

With `O=S(=O)(c1ccccc1)c1ccc2c(c1)OCCN2C1CCNCC1` [Comparator Example, 7-Phenylsulfonyl-4-(piperidin-4-yl)-3,4-dihydro-2H-benzo[1,4]oxazine, reference compound] the “Findings (mortality)” value (Female rats; listed as Comparator example of U.S. Pat. No. 7,378,415) was “Mortality at ≥”, the “Findings (mortality)” value (Female rats; listed as comparator example of U.S. Pat. No. 7,378,415) was “deaths were observed at doses >100 mg/kg on second day of dosing” and the NOAEL at 7 days ([2]; in vivo, 7-Day repeat tox) was 30 mg/kg. It also gave an MTD ([2]; in vivo, repeated incremental doses, read-out: Maximum Tolerated Dose) of 30 mg/kg, an AUC ([2]; plasma, repeated dose toxicity study, read-out: AUC (systemic exposure in toxicity study)) of 4050 ng·h/mL and a Cmax ([2]; plasma, repeated dose toxicity study, read-out: Cmax (systemic exposure in toxicity study)) of 280 ng/mL. It also gave a Kb [1] of 0.1 nM and a Ki (recombinant human 5-HT2A) of 9.02 nM.
